Measurements published in patent US7851637B2, “Compounds and methods for inhibiting the interaction of BCL proteins with binding partners” (Infinity Pharmaceuticals, Inc., priority 2004, dated 2010).
Where two headings read alike, the source gives them in different places.

Tests used:
Bcl-xL = Bcl-xL (Homo sapiens, UniProt Q07817); assay: Bcl-xL binding affinity analysis (fluorescence polarization binding assay); set-up: scale not given here
Outline: (§1)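 In vitro measurement of compound binding to each protein by fluorescence polarization, described as sensitive and quantitative.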

Bcl-2 = Bcl-2 (Homo sapiens, UniProt P10415); assay: Bcl-2 binding affinity analysis (fluorescence polarization binding assay)
Outline: as §1

[1] = tested on: Human Pancreatic Cancer Cell Line Panc1; assay: Cell death assay (propidium iodide/Hoechst) in Panc1 cells with or without camptothecin; type: cell-based; details: 72 hours, % cell death by propidium iodide/Hoechst
Experimental: (§2) When RL-cells are exposed to isoxazolidine compounds of the present invention, the inhibitors show a dose-dependent cell-killing in the Alamar blue cytoxicity assay with IC50 values of from about 100 μM to about 1 μM (See Examples). When Panc1 cells are exposed to the isoxazolidine compounds of the present invention in combination with camptothecin, the inhibitors show a synergistic dose-dependent cell killing in the propidium iodide exclusion cell survival assay with IC50 values of from about 100 μM to about 1 μM (See Examples).
• 1) Compounds were serially diluted in DMSO from a 9 mM stock to a final concentration of 0.004 mM in a 96 well plate. • 2) Assay plates were prepared by diluting compounds 310 fold into 150 ul of medium containing 10,000 cells/well, with or without 3 uM Camptothecin, resulting in a final DMSO concentration of 0.3% and a compound concentration range from 29 uM to […] for each compound. • 3) Assay plates were incubated at 37 C, 5% CO2 for 72 hours. • 4) After 72 hours, propidium iodide and Hoechst dye were added to each well according to manufacturer's instruction. • 5) Plates were imaged on a fluorescence microscope at wavelengths Ex560/Em650 (Propidium iodide) and Ex360/Em465 (Hoechst) • 6) MetaMorph imaging software was used to determine % cell death by dividing the number of propidium iodide stained cells (dead cells) by the number of Hoechst stained cells (all cells), multipled by 100, in each field.
Panc1 invitro cellular data is presented below for various compounds of the invention.

[2] = tested on: RL Human Follicular Lymphoma Cell Line; assay: Alamar blue cytotoxicity assay in RL cells; type: cell-based; details: 72 h incubation, read-out: Bcl RL Alamar Blue IC50
Experimental: as §2
• 1) Using 96 well plates, compounds were serially diluted in DMSO from 9 mM to 4 uM • 2) Assay plates were prepared by diluting samples 310 fold into 150 ul of medium containing 30,000 cells/well resulting in a final DMSO concentration of 0.3% and a concentration range from 29 uM to 0.013 uM for each compound. • 3) Plates were incubated at 37 C and 5% CO2 for 72 h • 4) After 72 h, Alamar blue reagent was added to each well and plates read according to manufacturer's instructions
In vitro cytotoxicity data for RL cells is presented below for various compounds of the invention.

[3] = Homo sapiens, PANC-1, without camptothecin, read-out: Panc1 − Cpt IC50
[4] = with 3 uM Camptothecin, read-out: Panc1 + Cpt IC50

Chain of Bcl-2 (P10415 whole entry): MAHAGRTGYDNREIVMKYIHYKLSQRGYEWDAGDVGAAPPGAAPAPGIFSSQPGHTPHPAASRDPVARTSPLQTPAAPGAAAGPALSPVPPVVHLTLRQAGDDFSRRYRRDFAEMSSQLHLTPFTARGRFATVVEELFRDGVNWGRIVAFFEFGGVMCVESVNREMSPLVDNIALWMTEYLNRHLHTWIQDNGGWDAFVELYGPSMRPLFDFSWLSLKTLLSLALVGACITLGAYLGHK
Chain of Bcl-xL (Q07817 whole entry): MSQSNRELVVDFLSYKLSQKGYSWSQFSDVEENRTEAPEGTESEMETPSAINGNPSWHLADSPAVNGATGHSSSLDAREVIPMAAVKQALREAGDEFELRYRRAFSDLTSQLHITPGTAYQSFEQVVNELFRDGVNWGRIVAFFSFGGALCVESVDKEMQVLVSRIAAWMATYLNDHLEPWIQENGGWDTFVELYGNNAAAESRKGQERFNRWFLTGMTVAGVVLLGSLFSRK

Compound	Bcl-XL binding affinity Ki (Bcl-xL)	Ki (Bcl-2) [nM]	IC50 [1, 3] [nM]	IC50 [1, 4] [nM]	IC50 ([2]; Homo sapiens) [nM]	IC50 [2] [nM]
CC(O)C1C(CO)ON(Cc2cccc(CNC(CC3CCCCC3)CN(C)C)c2)C1C(=O)NC1CC2CC(C1C)C2(C)C (stereo not shown) [Compound 444]	♯	< 800	> 2500	> 2500	2000 to 5000	
COc1cc(CN(CCN(C)C)Cc2cccc(CN3OC(CO)C(C(C)O)C3C(=O)NC3CC4CC(C3C)C4(C)C)c2)cc(OC)c1 (stereo not shown) [Compound 404]	♯	< 800			2000 to 5000	
COc1c(CN2O[C@@H](CO)[C@@H]([C@H](C)O)[C@H]2C(=O)N[C@H]2C[C@H]3C[C@@H]([C@@H]2C)C3(C)C)cccc1-c1cccc(C(=O)N[C@H](CCc2ccccc2)CN(C)C)c1 [Compound 482]	♯	< 800			< 2000	
C[C@@H]1[C@@H](NC(=O)[C@@H]2[C@H]([C@H](C)O)[C@H](CO)ON2Cc2cccc(NC(=O)N[C@@H](Cc3ccccc3)CN(C)C)c2)C[C@H]2C[C@@H]1C2(C)C [Compound 570]	♯	< 800			> 5000	
C[C@@H]1[C@@H](NC(=O)[C@@H]2C([C@H](C)O)[C@H](CO)ON2Cc2cccc(CN(Cc3ccccc3)[C@@H](CCc3ccccc3)CN(C)C)c2)C[C@H]2C[C@@H]1C2(C)C (stereo partly shown) [Compound 420]	♯	< 800			< 2000	
Cc1ccc(CN(CCN(C)C)Cc2cccc(CN3OC(CO)C(C(C)O)C3C(=O)NC3CC4CC(C3C)C4(C)C)c2)cc1 (stereo not shown) [Compound 386]	♯	< 800			2000 to 5000	
C[C@@H]1[C@@H](NC(=O)[C@@H]2[C@H]([C@H](C)O)[C@H](CO)ON2Cc2cccc(NC(=O)N[C@H](CC3CCCCC3)CN(C)C)c2)C[C@H]2C[C@@H]1C2(C)C [Compound 574]	♯	< 800			2000 to 5000	
CC(C)CN(CCN(C)C)Cc1cccc(CN2OC(CO)C(C(C)O)C2C(=O)NC2CC3CC(C2C)C3(C)C)c1 (stereo not shown) [Compound 379]	♯	< 800			> 5000	
CCOc1cccc(CN(CCN(C)C)Cc2cccc(CN3OC(CO)C(C(C)O)C3C(=O)NC3CC4CC(C3C)C4(C)C)c2)c1 (stereo not shown) [Compound 383]	♯	< 800			2000 to 5000	
C[C@@H]1[C@@H](NC(=O)[C@@H]2C([C@H](C)O)[C@H](CO)ON2Cc2cccc(CN(CCN(C)C)Cc3cccc(F)c3F)c2)C[C@H]2C[C@@H]1C2(C)C (stereo partly shown) [Compound 362]	♯	< 800			2000 to 5000	
CC(O)C1C(CO)ON(Cc2cccc(CN(CCN(C)C)Cc3cccc(OC(F)(F)F)c3)c2)C1C(=O)NC1CC2CC(C1C)C2(C)C (stereo not shown) [Compound 367]	♯	< 800			2000 to 5000	
CC(C)C[C@H](CN(C)C)NC(=O)Nc1cccc(CN2O[C@@H](CO)[C@@H]([C@H](C)O)[C@H]2C(=O)NC2C[C@H]3C[C@@H]([C@@H]2C)C3(C)C)c1 (stereo partly shown) [Compound 562]	♯	< 800			> 5000	
CC(O)C1C(CO)ON(Cc2cccc(CN(CCN(C)C)Cc3cccc(O)c3)c2)C1C(=O)NC1CC2CC(C1C)C2(C)C (stereo not shown) [Compound 378]	♯	< 800			2000 to 5000	

More lines, main results first:

Bcl-XL binding affinity Ki (Bcl-xL)	Ki (Bcl-2) [nM]	Compound	IC50 [1, 3] [nM]	IC50 [1, 4] [nM]	IC50 ([2]; Homo sapiens) [nM]	IC50 [2] [nM]
♯	< 800	CC(O)C1C(CO)ON(Cc2cccc(CN(CCN(C)C)Cc3ccccc3Br)c2)C1C(=O)NC1CC2CC(C1C)C2(C)C (stereo not shown) [Compound 348]	> 2500	> 2500	> 5000	
♯	< 800	C[C@@H]1[C@@H](NC(=O)[C@@H]2[C@H]([C@H](C)O)[C@H](CO)ON2Cc2cccc(NC(=O)N[C@H](Cc3ccccc3)CN(C)C)c2)C[C@H]2C[C@@H]1C2(C)C [Compound 571]			> 5000	
♯	< 800	CC(O)C1C(CO)ON(Cc2cccc(CNCC3CCCN3C(=O)OCc3ccccc3)c2)C1C(=O)NC1CC2CC(C1C)C2(C)C (stereo not shown) [Compound 474]			2000 to 5000	
♯	< 800	CC(O)C1C(CO)ON(Cc2cccc(C(=O)NC(Cc3ccccc3)CN(C)C)c2)C1C(=O)NC1CC2CC(C1C)C2(C)C (stereo not shown) [Compound 507]			> 5000	
♯	< 800	CC(O)C1C(CO)ON(Cc2cccc(CN(CCN(C)C)Cc3cccc(F)c3)c2)C1C(=O)NC1CC2CC(C1C)C2(C)C (stereo not shown) [Compound 356]			> 5000	
♯	< 800	C[C@@H]1[C@@H](NC(=O)[C@@H]2C([C@H](C)O)[C@H](CO)ON2Cc2cccc(CN3[C@@H](CN(C)C)CC[C@H]3c3ccccc3)c2)C[C@H]2C[C@@H]1C2(C)C (stereo partly shown) [Compound 448]			2000 to 5000	
♯	< 800	COc1c(CN2O[C@@H](CO)[C@@H]([C@H](C)O)[C@H]2C(=O)N[C@H]2C[C@H]3C[C@@H]([C@@H]2C)C3(C)C)cccc1-c1cccc(C(=O)N[C@@H](CCc2ccccc2)CN(C)C)c1 [Compound 481]			2000 to 5000	
♯	< 800	CC(O)C1C(CO)ON(Cc2cccc(NC(=O)NC(CCc3ccccc3)CN(C)C)c2)C1C(=O)NC1CC2CC(C1C)C2(C)C (stereo not shown) [Compound 573]				2000 to 5000
♯	< 800	CC(O)C1C(CO)ON(Cc2cccc(CN(CCN(C)C)Cc3cccc(Oc4ccccc4)c3)c2)C1C(=O)NC1CC2CC(C1C)C2(C)C (stereo not shown) [Compound 374]			2000 to 5000	
♯	< 800	COc1c(CN2O[C@@H](CO)[C@@H]([C@H](C)O)[C@H]2C(=O)N[C@H]2C[C@H]3C[C@@H]([C@@H]2C)C3(C)C)cccc1-c1cccc(C(=O)N[C@H](CN(C)C)c2ccccc2)c1 [Compound 491]			2000 to 5000	
♯	< 800	CC(O)C1C(CO)ON(Cc2cccc(CN3c4ccccc4CC3CN(C)C)c2)C1C(=O)NC1CC2CC(C1C)C2(C)C (stereo not shown) [Compound 465]			> 5000	
♯	< 800	CC(O)C1C(CO)ON(Cc2cccc(NC(=O)NC(CCc3ccccc3)CN(C)C)c2)C1C(=O)NC1CC2CC(C1C)C2(C)C (stereo not shown) [Compound 572]			2000 to 5000	
♯	< 800	C[C@@H]1[C@@H](NC(=O)[C@@H]2[C@H]([C@H](C)O)[C@H](CO)ON2Cc2cccc(N(CCCN(C)C)Cc3ccccc3C(F)(F)F)c2)C[C@H]2C[C@@H]1C2(C)C [Compound 585]			2000 to 5000	
♯	< 800	CC(O)C1C(CO)ON(Cc2cccc(CN(CCN(C)C)Cc3ccccc3F)c2)C1C(=O)NC1CC2CC(C1C)C2(C)C (stereo not shown) [Compound 352]			2000 to 5000	
♯	< 800	CCc1ccccc1CN(CCN(C)C)Cc1cccc(CN2OC(CO)C(C(C)O)C2C(=O)NC2CC3CC(C2C)C3(C)C)c1 (stereo not shown) [Compound 349]			< 2000	
♯	< 800	CC(O)C1C(CO)ON(Cc2cccc(CN(CCN(C)C)Cc3ccc(C(F)(F)F)cc3)c2)C1C(=O)NC1CC2CC(C1C)C2(C)C (stereo not shown) [Compound 371]			2000 to 5000	
♯	< 800	CCCCCCCN(CCN(C)C)Cc1cccc(CN2O[C@@H](CO)C([C@H](C)O)[C@H]2C(=O)N[C@H]2C[C@H]3C[C@@H]([C@@H]2C)C3(C)C)c1 (stereo partly shown) [Compound 355]			2000 to 5000	
♯	< 800	CC(C)CC(CN(C)C)N(Cc1cccc(CN2OC(CO)C(C(C)O)C2C(=O)NC2CC3CC(C2C)C3(C)C)c1)Cc1ccc(F)cc1C(F)(F)F (stereo not shown) [Compound 323]			> 5000	
♯	< 800	CC(O)C1C(CO)ON(Cc2cccc(CN(CCN(C)C)Cc3ccc(-c4ccccc4)cc3)c2)C1C(=O)NC1CC2CC(C1C)C2(C)C (stereo not shown) [Compound 400]			< 2000	
